Columns and labels:
Type in all cases: cell-based, mouse
[1] = test system: 5 alpha-reductase isoform 2 (SRD5A2); experiment: Gene expression of isoform 2 of 5 alpha-reductase (SRD5A2) in BALB3T3 cells by qRT-PCR; details: 0.05 mg/mL, 24 h, relative expression 2^-ΔΔCt vs β-actin, Ctr = 1
Experimental: Effects of Galeopsis segetum and Galeopsis tetrahit Study on the Activity of 5 Alpha-Reductase (Isoform 2)-BALB3T3
The gene expression of the isoform 2 of 5 alpha-reductase (SRD5A2) in BALB3T3 cells was evaluated by relative quantitative RT-PCR (quantitative reverse transcription polymerase chain reaction-qRT-PCR).
This analysis has foreseen 3 sequential phases: • Total RNA extraction; • Reverse transcription in cDNA; • qRT-PCR.
BALB3T3 murine fibroblasts were seeded in 12-well plates at a density of 0.5*10^6 cells/well and incubated until about 80% confluence was achieved.
Subsequently, the cells were incubated for 24 hours with Galeopsis segetum and Galeopsis tetrahit (vegetable biomass and dry hydro-alcoholic sample) at the following concentrations: 20-50 and 100 μg/ml. […]
At the end of the incubation with the active compounds of interest, cells were washed with PBS (1×) and finally subjected to the RNA extraction procedure. At the end of the extraction, using a spectrophotometer (Jenway UV/VIS MOD: 6715, BS-6715B0), the concentrations in μg/ml of total RNA extracted at the wavelength of 260 nm were calculated. Finally, the integrity of RNA (2 μg/ml) by electrophoretic run on 1% agarose gel was evaluated. […]
The extracted and quantified RNA was diluted to a concentration of 2 μg/ml and retro-transcripted in cDNA. […]
Assuming a 100% amplification efficiency, the 2^−ΔΔCt was calculated.

[2] = test system: ROS production in the BALB3T3 murine fibroblast cell line; experiment: ROS intracellular production (DCFH-DA assay)-BALB3T3; details: 25 μM, 16 h pretreatment, then 1 mM H2O2 90 min; ctr + H2O2 = 100
Experimental: Study of the Effects of Galeopsis segetum and Galeopsis tetrahit and on ROS Production Using a DCFH-DA-BALB3T3 Assay
The ROS production in the BALB3T3 murine fibroblast cell line was determined by spectrophotometer using the 2,7-dichlorofluorescein-diacetate (DCFH-DA) assay, as described by Tobi et al. (Tobi et al., 2000).
DCFH-DA is a non-fluorescent compound in lipophilic form, able to spread through the cell membrane. Once inside the cell, it is deacetylated by the intracellular esterases to reduced 2,7-dichlorofluorescein (DCFH), which is also non-fluorescent. DCFH, unable to cross again the cell membrane, eventually ends up accumulating in the cells (Curtin et al., 2002). The intracellular ROS reaction leads to the oxidation of 2.7-dichlorofluorescein (DCF) DCFH, a highly fluorescent compound. This fluorescence intensity can be detected with a fluorimeter, allowing estimating the amount of ROS produced in the cells.
[…]
Subsequently, the lysates were transferred in a 96-well black plate and the fluorescence of DCF was read spectrofluorimetrically using a FluoroskanAscent FL Microplate Fluorescence Reader (Thermo Fisher ScientificInc., Waltham, Mass., USA), with excitation and emission wavelengths of 485 and 538 nm respectively. […]

[3] = test system: BALB3T3 murine fibroblasts stressed with H2O2; experiment: MTT with induced oxidative stress-BALB3T3; details: 50 μM, pretreatment, then 1 mM H2O2 90 min; non-stressed ctr = 100, Ctr + H2O2 = 58.43
Excerpt: MTT with Induced Oxidative Stress-BALB3T3
BALB3T3 mouse fibroblasts are one of the validated models for studies of oxidative stress in vitro (Subirade et al., 1995; Kutuk et al., 2004).
Studies conducted in 2005 by Rajapakse and coworkers (2005) highlighted the possibility of exploiting a highly used and versatile method such as that of the MTT assay for the in vitro study antioxidant activity of active compounds. Specifically, through this method it is possible to study the protective effects of these compounds on cells subsequently subjected to oxidative stress. The induction of oxidative stress is carried out by incubation with hydrogen peroxide, an agent that induces the production of oxidative damage in the cells through ROS formation. The possible protective effects can be determined through the assessment of cell viability after oxidative stress of the pre-treated/pre-exposed cells to the active compounds to be tested, in comparison with cells subjected to the same oxidative stress. […]
Once the oxidation stress induction phase was completed, the cell viability of the various samples was evaluated, according to the method described in point 4.1.2 (assay with MTT).
The data were expressed as a percentage of cell viability compared to non-stressed control cells (ctr), according to the following formula: % cell viability/ctr=(Sample Abs/ctr Abs)*100 […]

Row | SMILES | mRNA SERD5A2 [1] | % ROS [2] [%] | % cells viability [3] [%]
1 | CC(C)(C)NC(=O)[C@H]1CC[C@H]2[C@@H]3CC[C@H]4NC(=O)C=C[C@]4(C)[C@H]3CC[C@]12C [finasteride] | 0.31 |  | 
2 | Cc1c(C)c2c(c(C)c1O)CC[C@@](C)(CCC[C@H](C)CCC[C@H](C)CCCC(C)C)O2 [α-tocopherol] |  | 39.67 | 78.37
